In patent publication US20220323594A1, “LIPIDATED CATIONIC PEPTIDE-PEG COMPOSITIONS FOR NUCLEIC ACID DELIVERY” (NUTCRACKER THERAPEUTICS, INC., priority 2019, published 2022):

Experiments:
[1] = mRNA encapsulation by fluorescence of Qubit RNA HS dye before and after lysis with Triton X-100; type: physicochemical; details: percentage of mRNA encapsulation; Fluc mRNA/peptoid formulation, 5:1 mass ratio
In short: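 Encapsulation was measured by comparing Qubit RNA HS fluorescence of intact particles with that after Triton X-100 lysis. Particles were amino-lipidated cationic peptoids complexed with firefly luciferase mRNA at 5:1 peptoid:cargo by mass, mixed by pipetting.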

[2] = Dynamic light scattering (DLS) of mRNA/peptoid formulations: particle size and polydispersity; type: physicochemical; details: Fluc mRNA/peptoid formulation; for Size PDI: size polydispersity index by DLS, 5:1 mass ratio; for Size (nm): volume average particle size/diameter by DLS, 5:1 mass ratio peptoid:cargo
Procedure: To prepare nanoparticle formulations, the amino lipidated peptoid is mixed by pipetting with nucleic acid at a mass ratio between approximately 1:1 (peptoid:cargo) and 20:1. Prior to formulation, amino lipidated peptoid and nucleic acid cargo were diluted in ethanol and acidic buffer (PBS adjusted to pH 5.5 with 0.1 M HCl) respectively to a volume ratio of 1:3 and to target a final cargo concentration of approximately 0.05 mg/mL to 0.2 mg/mL. The exemplary amino lipidated cationic peptoids described in Example 2 were combined with firefly luciferase (Fluc) mRNA to form nanoparticle compositions to be evaluated for therapeutic and/or prophylactic purposes in vitro or in vivo. The formulations were prepared according to the protocol of Example 3 and mixed by simple pipetting. The mRNA/peptoid formulation at a 5:1 mass ratio of peptoid:cargo were evaluated by dynamic light scattering (DLS) in order to determine the volume average particle size/diameter (nm) of the mRNA/peptoid complex and the size polydispersity index (PDI) within the formulation. The percentage of mRNA encapsulation for each formulation of the exemplary compounds were determined by fluorescence of the Qubit RNA HS (Invitrogen) dye before and after lysis of particles by Triton X-100.

HeLa cells [3] = test: In vitro Fluc expression with variable peptoid:mRNA mass ratio, 2% DMG-PEG2000; type: cell-based; details: 24 h; for Observed Luciferase Expression (RLU) for Given Formulation Mass Ratio 2:1: 2% (w/w) DMG-PEG2000, peptoid:mRNA 2:1; for Observed Luciferase Expression (RLU) for Given Formulation Mass Ratio 3.5:1: 2% (w/w) DMG-PEG2000, peptoid:mRNA 3.5:1; for Observed Luciferase Expression (RLU) for Given Formulation Mass Ratio 5:1: 2% (w/w) DMG-PEG2000, peptoid:mRNA 5:1; for Observed Luciferase Expression (RLU) for Given Formulation Mass Ratio 7.5:1: 2% (w/w) DMG-PEG2000, peptoid:mRNA 7.5:1
In short: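 HeLa cells exposed 24 hours to amino lipidated peptoid/Fluc mRNA formulations containing 2% w/w DMG-PEG2000 (relative to peptoid), across peptoid:mRNA mass ratios of 2:1 to 7.5:1. Read-out: average luciferase bioluminescence (RLU).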

HeLa cells [4] = test: In vitro expression of firefly luciferase (Fluc) after treatment with Fluc mRNA/amino lipidated peptoid formulations, no PEG or 2% DMG-PEG2000; type: cell-based
In short: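 HeLa cells received 100 ng/well Fluc mRNA complexed with amino lipidated peptoid at 5:1 peptoid:mRNA (w/w), either peptoid alone or with 2% w/w DMG-PEG2000. Expression quantified as RLU by luminescence at 6 and 24 h.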

[5] = MTT viability assay after treatment with Fluc mRNA/amino lipidated peptoid formulations; type: cell-based; details: human, HeLa cells
In short: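 Viability relative to untreated cells came from the formazan read-out after 2 h with 1.5 mg/mL MTT and acidic isopropanol/Triton lysis. The MTT step followed an 8 h exposure to 100 ng/well Fluc mRNA in 5:1 peptoid:mRNA, 2% DMG-PEG2000 formulations and a further 48 h of culture.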

[6] = no PEG, peptoid:Fluc mRNA 5:1 w/w, 100 ng/well, 6 h of treatment
[7] = no PEG, peptoid:Fluc mRNA 5:1 w/w, 100 ng/well, 24 h of treatment
[8] = with 2% (w/w) DMG-PEG2000, peptoid:mRNA 5:1, 6 h after treatment
[9] = with 2% (w/w) DMG-PEG2000, peptoid:mRNA 5:1, 24 h after treatment

| SMILES | % Encapsulation [1] [%] | Size PDI [2] | Size (nm) [2] [nm] | Observed Luciferase Expression (RLU) for Given Formulation Mass Ratio 2:1 (HeLa cells [3]) [RLU] | Observed Luciferase Expression (RLU) for Given Formulation Mass Ratio 3.5:1 (HeLa cells [3]) [RLU] | Observed Luciferase Expression (RLU) for Given Formulation Mass Ratio 5:1 (HeLa cells [3]) [RLU] | Observed Luciferase Expression (RLU) for Given Formulation Mass Ratio 7.5:1 (HeLa cells [3]) [RLU] | Luciferase Expression (RLU) 6 h (HeLa cells [4]; [6]) [RLU] | Luciferase Expression (RLU) 24 h (HeLa cells [4]; [7]) [RLU] | Luciferase Expression (RLU) 6 h (HeLa cells [4]; [8]) [RLU] | Luciferase Expression (RLU) 24 h (HeLa cells [4]; [9]) [RLU] | viability at 8 h, 500 ng/well ([5]; Relative Viability (%) 2% PEG) [%] | viability at 8 h, 500 ng/well ([5]; Relative Viability (%) No PEG) [%] |
| --- | --- | --- | --- | --- | --- | --- | --- | --- | --- | --- | --- | --- | --- |
| CCCCCCCCCCN(CC(N)=O)C(=O)CN(CCCCCCCCCC)C(=O)CN(CCCCCCCCCC)C(=O)CN(CCCCCCCCCC)C(=O)CN(CCCCCCCCCC)C(=O)CN(CCc1ccccc1)C(=O)CN(CCc1ccccc1)C(=O)CN(CCN)C(=O)CN(CCc1ccccc1)C(=O)CN(CCc1ccccc1)C(=O)CNCCN [Compound 20] | 72.2 | 0.37 | 326.6 | 1.31E+03 | 2.47E+04 | 1.31E+04 | 2.27E+04 | 9.91E+03 | 1.55E+04 | 1.75E+04 | 1.36E+04 | 93 | 87.1 |
| CCCCCCCCCCN(CC(N)=O)C(=O)CN(CCCCCCCCCC)C(=O)CN(CCCCCCCCCC)C(=O)CN(CCCCCCCCCC)C(=O)CN(CCCCCCCCCC)C(=O)CN(CCCCCCCCCC)C(=O)CN(CCc1ccccc1)C(=O)CN(CCc1ccccc1)C(=O)CN(CCN)C(=O)CN(CCc1ccccc1)C(=O)CN(CCc1ccccc1)C(=O)CN(CCN)C(=O)CN(CCc1ccccc1)C(=O)CN(CCc1ccccc1)C(=O)CNCCN [Compound 22] | 65.4 | 0.538 | 748.2 | 3.53E+01 | 8.83E+01 | 2.50E+02 | 5.80E+02 | 6.63E+01 | 6.77E+01 | 9.23E+01 | 2.13E+01 | 118 | 104 |
| CCCCCCCCCCN(CC(N)=O)C(=O)CN(CCCCCCCCCC)C(=O)CN(CCCCCCCCCC)C(=O)CN(CCCCCCCCCC)C(=O)CN(CCc1ccccc1)C(=O)CN(CCc1ccccc1)C(=O)CN(CCNC)C(=O)CN(CCc1ccccc1)C(=O)CN(CCc1ccccc1)C(=O)CN(CCNC)C(=O)CN(CCc1ccccc1)C(=O)CN(CCc1ccccc1)C(=O)CNCCNC [Compound 25] | 8.4 | 0.021 | 773.3 | 3.86E+02 | 8.41E+03 | 5.03E+03 | 5.66E+03 | 3.93E+02 | 2.07E+03 | 1.81E+03 | 7.30E+02 | 85.9 | 77.9 |
| CCCCCCCCCCN(CC(N)=O)C(=O)CN(CCCCCCCCCC)C(=O)CN(CCc1ccccc1)C(=O)CN(CCc1ccccc1)C(=O)CN(CCNC)C(=O)CN(CCc1ccccc1)C(=O)CN(CCc1ccccc1)C(=O)CN(CCNC)C(=O)CN(CCc1ccccc1)C(=O)CN(CCc1ccccc1)C(=O)CNCCNC [Compound 27] | 50.9 | 0.606 | 438.7 | 6.27E+03 | 8.40E+02 | 8.69E+02 | 6.41E+02 | 9.88E+02 | 7.40E+02 | 3.13E+02 | 6.36E+02 | 91.1 | 93.9 |
| CCCCCCCCCCN(CC(N)=O)C(=O)CN(CCCCCCCCCC)C(=O)CN(CCc1ccccc1)C(=O)CN(CCc1ccccc1)C(=O)CN(CCCN)C(=O)CN(CCc1ccccc1)C(=O)CN(CCc1ccccc1)C(=O)CN(CCCN)C(=O)CN(CCc1ccccc1)C(=O)CN(CCc1ccccc1)C(=O)CNCCCN [Compound 30] | 8.4 | 0.455 | 282.8 | 4.27E+04 | 3.43E+03 | 3.46E+03 | 1.47E+03 | 2.79E+03 | 1.29E+04 | 1.79E+03 | 1.52E+03 | 88 | 86.5 |
| CCCCCCCCCCN(CC(N)=O)C(=O)CN(CCCCCCCCCC)C(=O)CN(CCCCCCCCCC)C(=O)CN(CCCCCCCCCC)C(=O)CN(CCc1ccccc1)C(=O)CN(CCc1ccccc1)C(=O)CN(CC1CCNCC1)C(=O)CN(CCc1ccccc1)C(=O)CN(CCc1ccccc1)C(=O)CN(CC1CCNCC1)C(=O)CN(CCc1ccccc1)C(=O)CN(CCc1ccccc1)C(=O)CNCC1CCNCC1 [Compound 31] | 35.7 | 0.404 | 348.5 | 2.07E+02 | 5.70E+02 | 3.77E+03 | 2.05E+03 | 5.84E+02 | 2.93E+03 | 4.30E+02 | 2.63E+02 | 98.4 | 83.8 |
| CCCCCCCCCCN(CC(N)=O)C(=O)CN(CCCCCCCCCC)C(=O)CN(CCCCCCCCCC)C(=O)CN(CCCCCCCCCC)C(=O)CN(CCc1ccccc1)C(=O)CN(CCc1ccccc1)C(=O)CN(CC1CCNCC1)C(=O)CN(CCc1ccccc1)C(=O)CN(CCc1ccccc1)C(=O)CN(CC1CCNCC1)C(=O)CN(CCc1ccccc1)C(=O)CN(CCc1ccccc1)C(=O)CN(CC1CCNCC1)C(=O)CN(CCc1ccccc1)C(=O)CN(CCc1ccccc1)C(=O)CNCC1CCNCC1 [Compound 32] | 50.9 | 0.274 | 247.5 | 1.82E+02 | 3.09E+02 | 3.77E+03 | 3.37E+03 | 4.25E+02 | 2.00E+03 | 4.82E+02 | 3.40E+02 | 102 | 90.7 |
| CCCCCCCCCCN(CC(N)=O)C(=O)CN(CCCCCCCCCC)C(=O)CN(CCc1ccccc1)C(=O)CN(CCc1ccccc1)C(=O)CN(CC1CCNCC1)C(=O)CN(CCc1ccccc1)C(=O)CN(CCc1ccccc1)C(=O)CN(CC1CCNCC1)C(=O)CN(CCc1ccccc1)C(=O)CN(CCc1ccccc1)C(=O)CNCC1CCNCC1 [Compound 33] | 82.0 | 0.048 | 435.7 | 1.76E+04 | 6.62E+02 | 7.46E+02 | 3.12E+02 | 4.61E+03 | 1.14E+04 | 4.64E+02 | 5.17E+02 | 98 | 99.4 |
